Converted amounts (≈) assume the structure as drawn. The source made the active and inactive calls. The calls are words filed in the database; no cut-off is given here.
What was measured:
[1] = target: CYP2C9 (Homo sapiens, UniProt P11712); assay: Inhibition of CYP2C9 at 3 uM; assay type: ADME
[2] = target: CYP2D6 (Homo sapiens, UniProt P10635); assay: Inhibition of CYP2D6 at 3 uM; assay type: ADME
[3] = target: CYP3A4 (Homo sapiens, UniProt P08684); assay: Inhibition of CYP3A4 at 3 uM; assay type: ADME
Sequence of CYP3A4 (P08684 whole entry): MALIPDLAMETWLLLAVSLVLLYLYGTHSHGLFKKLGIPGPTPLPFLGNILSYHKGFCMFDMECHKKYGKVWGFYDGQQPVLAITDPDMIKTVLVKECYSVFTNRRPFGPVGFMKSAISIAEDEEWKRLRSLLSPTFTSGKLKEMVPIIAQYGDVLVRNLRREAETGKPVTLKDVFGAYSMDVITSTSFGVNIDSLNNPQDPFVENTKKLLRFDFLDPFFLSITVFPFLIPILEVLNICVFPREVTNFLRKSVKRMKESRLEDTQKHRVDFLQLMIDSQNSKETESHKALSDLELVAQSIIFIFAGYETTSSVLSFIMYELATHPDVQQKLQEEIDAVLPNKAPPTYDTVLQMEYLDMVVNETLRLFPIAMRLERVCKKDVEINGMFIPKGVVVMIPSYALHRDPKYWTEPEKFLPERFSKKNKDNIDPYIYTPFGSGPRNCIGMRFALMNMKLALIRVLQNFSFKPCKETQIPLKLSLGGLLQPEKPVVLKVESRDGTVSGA

[4] = Aqueous solubility of the compound; assay type: physicochemical; details: buffer
[5] = Half life in rat liver microsomes; assay type: ADME, Microsome
[6] = target: Heat shock protein HSP 90-alpha (Homo sapiens, UniProt P07900)
[7] = tested on: HCT-116;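 further: antiproliferative effect on human HCT116 cells, read out by luminescence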
[8] = Half life in human liver microsomes; assay type: ADME, Microsome
[9] = Half life in mouse liver microsomes; assay type: ADME, Microsome
[10] = target: Voltage-gated inwardly rectifying potassium channel KCNH2 (Homo sapiens, UniProt Q12809)
Sequence of Voltage-gated inwardly rectifying potassium channel KCNH2 (Q12809 whole entry): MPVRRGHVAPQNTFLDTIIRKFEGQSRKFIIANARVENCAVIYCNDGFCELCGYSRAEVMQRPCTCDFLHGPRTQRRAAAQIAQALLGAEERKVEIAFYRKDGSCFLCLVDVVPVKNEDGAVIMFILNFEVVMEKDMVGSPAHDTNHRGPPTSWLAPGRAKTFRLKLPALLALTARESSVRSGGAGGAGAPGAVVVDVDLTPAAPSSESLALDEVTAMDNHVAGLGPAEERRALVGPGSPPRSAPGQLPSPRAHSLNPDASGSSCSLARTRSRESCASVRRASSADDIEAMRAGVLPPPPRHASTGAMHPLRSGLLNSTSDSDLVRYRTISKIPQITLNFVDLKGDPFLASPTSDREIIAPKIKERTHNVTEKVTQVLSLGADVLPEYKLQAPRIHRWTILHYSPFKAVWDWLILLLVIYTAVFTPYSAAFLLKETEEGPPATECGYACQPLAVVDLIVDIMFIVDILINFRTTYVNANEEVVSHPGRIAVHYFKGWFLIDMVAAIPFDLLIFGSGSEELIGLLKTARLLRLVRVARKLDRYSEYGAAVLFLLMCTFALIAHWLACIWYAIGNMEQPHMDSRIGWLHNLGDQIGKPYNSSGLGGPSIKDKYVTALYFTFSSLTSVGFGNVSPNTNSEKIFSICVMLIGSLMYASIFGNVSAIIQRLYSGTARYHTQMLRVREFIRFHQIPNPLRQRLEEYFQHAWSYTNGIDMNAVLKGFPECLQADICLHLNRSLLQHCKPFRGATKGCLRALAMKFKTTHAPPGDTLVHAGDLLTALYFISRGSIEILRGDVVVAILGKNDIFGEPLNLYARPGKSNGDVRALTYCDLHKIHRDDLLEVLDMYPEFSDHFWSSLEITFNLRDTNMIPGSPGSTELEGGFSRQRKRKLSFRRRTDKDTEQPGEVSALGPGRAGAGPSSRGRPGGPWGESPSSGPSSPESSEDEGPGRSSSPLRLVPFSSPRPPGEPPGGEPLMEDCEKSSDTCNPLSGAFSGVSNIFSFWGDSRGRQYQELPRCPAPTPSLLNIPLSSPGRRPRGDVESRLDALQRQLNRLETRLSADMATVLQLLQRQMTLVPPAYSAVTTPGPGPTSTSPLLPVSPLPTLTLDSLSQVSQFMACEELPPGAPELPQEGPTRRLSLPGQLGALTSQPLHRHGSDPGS

[11] = target: Tyrosine-protein kinase Fyn (Homo sapiens, UniProt P06241); assay: Inhibition of FYN
Sequence of Tyrosine-protein kinase Fyn (P06241 whole entry): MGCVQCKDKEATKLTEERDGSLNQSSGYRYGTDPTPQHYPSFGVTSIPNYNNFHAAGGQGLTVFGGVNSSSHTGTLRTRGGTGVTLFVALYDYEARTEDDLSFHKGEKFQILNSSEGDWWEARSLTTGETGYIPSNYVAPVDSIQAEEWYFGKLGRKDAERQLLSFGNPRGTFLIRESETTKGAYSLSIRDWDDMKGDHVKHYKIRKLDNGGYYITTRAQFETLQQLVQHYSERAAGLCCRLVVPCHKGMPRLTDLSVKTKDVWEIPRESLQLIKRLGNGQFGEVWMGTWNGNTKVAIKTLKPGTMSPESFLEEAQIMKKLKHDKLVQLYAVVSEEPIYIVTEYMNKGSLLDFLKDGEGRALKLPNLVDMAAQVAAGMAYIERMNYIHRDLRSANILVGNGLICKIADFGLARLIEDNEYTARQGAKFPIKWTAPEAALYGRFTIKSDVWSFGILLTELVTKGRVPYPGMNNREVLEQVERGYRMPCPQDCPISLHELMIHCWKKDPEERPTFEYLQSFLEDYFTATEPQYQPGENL

[12] = target: Proto-oncogene tyrosine-protein kinase Src (Homo sapiens, UniProt P12931); assay: Inhibition of SRC-related membrane-associated tyrosine kinase
Sequence of Proto-oncogene tyrosine-protein kinase Src (P12931 2-536 limits assumed): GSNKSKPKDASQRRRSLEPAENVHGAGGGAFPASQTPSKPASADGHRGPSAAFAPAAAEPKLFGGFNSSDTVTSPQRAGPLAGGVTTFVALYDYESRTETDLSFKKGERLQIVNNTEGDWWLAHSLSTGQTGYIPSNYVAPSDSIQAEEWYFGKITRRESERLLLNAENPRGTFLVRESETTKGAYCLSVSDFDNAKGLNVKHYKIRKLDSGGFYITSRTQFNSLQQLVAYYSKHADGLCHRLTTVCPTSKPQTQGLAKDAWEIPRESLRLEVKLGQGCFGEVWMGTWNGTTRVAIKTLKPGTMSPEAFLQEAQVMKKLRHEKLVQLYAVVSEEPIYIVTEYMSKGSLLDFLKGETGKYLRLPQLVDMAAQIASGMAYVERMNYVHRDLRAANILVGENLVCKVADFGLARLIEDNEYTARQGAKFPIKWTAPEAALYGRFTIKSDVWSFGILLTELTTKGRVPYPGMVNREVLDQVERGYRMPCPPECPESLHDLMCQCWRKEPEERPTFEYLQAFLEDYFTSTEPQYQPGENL

[13] = Half life in CD-1 mouse at 2 mg/kg, iv; assay type: ADME, organism-based; parameters: dose 2 mg/kg, route intravenous; details: in vivo
[14] = AUC (0 to infinity) in CD-1 mouse at 2 mg/kg, iv; assay type: ADME, organism-based; parameters: time infinity, dose 2 mg/kg, route intravenous; details: plasma
[15] = Plasma clearance in CD-1 mouse at 2 mg/kg, iv; assay type: ADME, organism-based; parameters: dose 2 mg/kg, route intravenous
[16] = Volume of distribution at steady state in CD-1 mouse at 2 mg/kg, iv; assay type: ADME, organism-based; parameters: dose 2 mg/kg, route intravenous; details: in vivo, read-out: Vdss
[17] = Half life in CD-1 mouse at 10 mg/kg, po; assay type: ADME, organism-based; parameters: dose 10 mg/kg, route oral; details: in vivo
[18] = AUC (0 to infinity) in CD-1 mouse at 10 mg/kg, po; assay type: ADME, organism-based; parameters: time infinity, dose 10 mg/kg, route oral; details: plasma
[19] = tested on: U-87MG ATCC; details: Homo sapiens
[20] = tested on: U-87MG ATCC; details: Homo sapiens; remark: listed apart in the source
[21] = tested on: U-87MG ATCC; details: Homo sapiens; remark: listed apart in the source
[22] = Bioavailability in CD-1 mouse at 10 mg/kg, po; details: in vivo

Sequence of CYP2D6 (P10635 whole entry): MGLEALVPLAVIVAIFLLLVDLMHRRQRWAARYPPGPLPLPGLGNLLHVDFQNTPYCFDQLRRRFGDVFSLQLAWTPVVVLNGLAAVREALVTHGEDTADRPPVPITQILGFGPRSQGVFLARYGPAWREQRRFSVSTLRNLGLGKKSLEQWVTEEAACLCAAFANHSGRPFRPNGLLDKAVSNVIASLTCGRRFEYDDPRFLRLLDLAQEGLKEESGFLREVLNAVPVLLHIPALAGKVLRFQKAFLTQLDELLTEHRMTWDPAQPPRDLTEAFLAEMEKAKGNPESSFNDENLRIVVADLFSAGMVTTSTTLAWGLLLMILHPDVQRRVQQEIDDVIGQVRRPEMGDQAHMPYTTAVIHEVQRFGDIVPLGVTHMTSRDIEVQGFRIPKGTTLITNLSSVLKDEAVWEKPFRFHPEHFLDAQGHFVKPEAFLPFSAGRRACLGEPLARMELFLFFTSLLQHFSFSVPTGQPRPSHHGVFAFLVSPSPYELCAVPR
Sequence of CYP2C9 (P11712 whole entry): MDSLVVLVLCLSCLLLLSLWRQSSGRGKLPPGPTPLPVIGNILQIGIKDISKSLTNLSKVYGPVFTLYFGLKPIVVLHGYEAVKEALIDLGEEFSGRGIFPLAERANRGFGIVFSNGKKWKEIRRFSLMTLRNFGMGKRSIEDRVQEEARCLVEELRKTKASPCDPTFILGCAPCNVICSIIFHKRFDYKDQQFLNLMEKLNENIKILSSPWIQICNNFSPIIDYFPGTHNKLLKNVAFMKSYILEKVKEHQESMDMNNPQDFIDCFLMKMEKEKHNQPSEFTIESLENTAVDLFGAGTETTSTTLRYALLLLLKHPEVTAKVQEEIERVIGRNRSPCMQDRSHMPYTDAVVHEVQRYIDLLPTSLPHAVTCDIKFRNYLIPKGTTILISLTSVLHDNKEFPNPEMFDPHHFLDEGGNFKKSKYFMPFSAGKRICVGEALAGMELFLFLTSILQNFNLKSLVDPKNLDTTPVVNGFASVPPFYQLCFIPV

Cc1c2c(n3c1CCN1CCC[C@@H]1CNc1cc-3ccc1C(N)=O)CC(C)(C)CC2=O
inhibition at 3 µM [1]: 0%
inhibition at 3 µM [2]: 6%
inhibition at 3 µM [3]: 32%
solubility ([4]; read-out: solubility): 6 µg/mL (≈ 14.3 µM)
half-life [5]: 6 min
IC50 [6]: 883 nM
EC50 [7]: 460 nM

Cc1c2c(n3c1CCCN1CC[C@H](CNc4cc-3ccc4C(N)=O)C1)CC(C)(C)CC2=O
inhibition at 3 µM [1]: 2%
inhibition at 3 µM [2]: 0%
inhibition at 3 µM [3]: 53%
solubility ([4]; read-out: solubility): > 100 µg/mL
half-life [8]: 23 min
half-life [9]: > 30 min
half-life [5]: 21 min
IC50 [6]: 201 nM
IC50 [10]: 440 nM
EC50 [7]: 100 nM

Cc1c2c(n3c1CCCN1C[C@H](O)C[C@@H]1CNc1cc-3ccc1C(N)=O)CC(C)(C)CC2=O
inhibition at 3 µM [1]: 9%
inhibition at 3 µM [2]: 33%
inhibition at 3 µM [3]: 64%
solubility ([4]; read-out: solubility): 67 µg/mL (≈ 149 µM)
half-life [8]: 3 min
half-life [9]: 7 min
half-life [5]: 10 min
IC50 [6]: 153 nM
EC50 [7]: 192 nM

Cc1c2c(n3c1CCCN1CCCC[C@@H]1[C@H](C)Nc1cc-3ccc1C(N)=O)CC(C)(C)CC2=O
inhibition at 3 µM [1]: 4%
inhibition at 3 µM [2]: 4%
inhibition at 3 µM [3]: 55%
solubility ([4]; read-out: solubility): 35 µg/mL (≈ 75.7 µM)
half-life [8]: 3 min
half-life [9]: 6 min
half-life [5]: 7 min
IC50 [6]: 170 nM
IC50 [10]: 1500 nM
EC50 [7]: 67 nM

Cc1c2c(n3c1CCCN1CC[C@@H](CNc4cc-3ccc4C(N)=O)C1)CC(C)(C)CC2=O
IC50 [6]: > 5000 nM
EC50 [7]: 2970 nM

Cc1c2c(n3c1CCC(=O)N1CCC[C@@H]1CNc1cc-3ccc1C(N)=O)CC(C)(C)CC2=O
IC50 [6]: 188 nM
EC50 [7]: 310 nM

Cc1c2c(n3c1CCCN1CCNC[C@H]1CNc1cc-3ccc1C(N)=O)CC(C)(C)CC2=O
inhibition at 3 µM [1]: 12%
inhibition at 3 µM [2]: 3%
inhibition at 3 µM [3]: 1%
solubility ([4]; read-out: solubility): > 100 µg/mL
half-life [8]: > 30 min
half-life [9]: > 30 min
half-life [5]: > 30 min
IC50 [6]: 3320 nM
EC50 [7]: 1850 nM

CC(=O)N[C@H]1C[C@@H]2CNc3cc(ccc3C(N)=O)-n3c(c(C)c4c3CC(C)(C)CC4=O)CCCN2C1
IC50 [6]: 634 nM
EC50 [7]: 2560 nM

Cc1c2c(n3c1CCCN1CCC[C@@H](C1)Nc1cc-3ccc1C(N)=O)CC(C)(C)CC2=O
inhibition at 3 µM [1]: 74%
inhibition at 3 µM [2]: 12%
inhibition at 3 µM [3]: 76%
solubility ([4]; read-out: solubility): 16 µg/mL (≈ 36.8 µM)
half-life [8]: 2 min
half-life [9]: 3 min
half-life [5]: 8 min
IC50 [6]: 78 nM
IC50 [10]: 3400 nM
EC50 [7]: 39 nM

CC(=O)N1CCN2CCCc3c(C)c4c(n3-c3ccc(C(N)=O)c(c3)NC[C@H]2C1)CC(C)(C)CC4=O
inhibition at 3 µM [1]: 15%
inhibition at 3 µM [2]: 4%
inhibition at 3 µM [3]: 34%
solubility ([4]; read-out: solubility): > 100 µg/mL
half-life [8]: 14 min
half-life [9]: 5 min
half-life [5]: 3 min
IC50 [6]: 106 nM
IC50 [10]: 24400 nM
EC50 [7]: 140 nM

Cc1c2c(n3c1CCCCN1CCC[C@@H]1CNc1cc-3ccc1C(N)=O)CC(C)(C)CC2=O
inhibition at 3 µM [1]: 0%
inhibition at 3 µM [2]: 2%
inhibition at 3 µM [3]: 67%
solubility ([4]; read-out: solubility): > 100 µg/mL
half-life [8]: 5 min
half-life [9]: 11 min
half-life [5]: 8 min
IC50 [6]: 301 nM
EC50 [7]: 232 nM

Cc1c2c(n3c1CCCN1C[C@@H](N4CCCC4)C[C@@H]1CNc1cc-3ccc1C(N)=O)CC(C)(C)CC2=O
inhibition at 3 µM [1]: 3%
inhibition at 3 µM [2]: 69%
inhibition at 3 µM [3]: 34%
solubility ([4]; read-out: solubility): 71 µg/mL (≈ 141 µM)
half-life [5]: 5 min
IC50 [6]: 496 nM
EC50 [7]: 2430 nM

Cc1c2c(n3c1CCCN1CC[C@@H](C1)Nc1cc-3ccc1C(N)=O)CC(C)(C)CC2=O
inhibition at 3 µM [1]: 25%
inhibition at 3 µM [2]: 23%
inhibition at 3 µM [3]: 70%
solubility ([4]; read-out: solubility): 49 µg/mL (≈ 117 µM)
half-life [5]: 5 min
IC50 [6]: 982 nM
EC50 [7]: 671 nM

Cc1c2c(n3c1CCCN1CCOC[C@@H]1CNc1cc-3ccc1C(N)=O)CC(C)(C)CC2=O
inhibition at 3 µM [1]: 39%
inhibition at 3 µM [2]: 0%
inhibition at 3 µM [3]: 71%
solubility ([4]; read-out: solubility): 29 µg/mL (≈ 64.4 µM)
half-life [8]: 3 min
half-life [9]: 7 min
half-life [5]: 3 min
IC50 [6]: 96 nM
IC50 [10]: 12500 nM
EC50 [7]: 34 nM

Cc1c2c(n3c1CCCN1CCC[C@H]1CNc1cc-3ccc1C(N)=O)CC(C)(C)CC2=O
solubility [4]: 66 µg/mL (≈ 152 µM)
EC50 [7]: 1140 nM

Cc1c2c(n3c1CCCN1CCCC[C@@H]1CNc1cc-3ccc1C(N)=O)CC(C)(C)CC2=O
inhibition at 3 µM [1]: 0%
inhibition at 3 µM [2]: 16%
inhibition at 3 µM [3]: 77%
solubility ([4]; read-out: solubility): 52 µg/mL (≈ 116 µM)
half-life [8]: 8 min
half-life [9]: 27 min
half-life [5]: 3 min
IC50 [6]: 126 nM
EC50 [7]: 32 nM

Cc1c2c(n3c1CCCN1CCC[C@@H]1CNc1cc-3ccc1C(N)=O)CC(C)(C)CC2=O
inhibition at 3 µM [1]: 6%
solubility ([4]; read-out: solubility): 2320 µg/mL (≈ 5350 µM)
half-life [5]: 6 min
IC50 [11]: 22000 nM
IC50 [12]: > 50000 nM
half-life [13]: 276 min
AUC(0-inf) [14]: 1740 ng·h/mL
clearance [15]: 19 mL/min/kg
Vd [16]: 5.3 L/kg
half-life [17]: 312 min
AUC(0-inf) [18]: 6460 ng·h/mL
IC50 [10]: 2600 nM
inhibition [19]: Active
inhibition [20]: Active
inhibition [21]: Active
bioavailability [22]: 74%

Cc1c2c(n3c1CCCN1C[C@@H](F)C[C@@H]1CNc1cc-3ccc1C(N)=O)CC(C)(C)CC2=O
inhibition at 3 µM [1]: 46%
inhibition at 3 µM [2]: 9%
inhibition at 3 µM [3]: 77%
solubility ([4]; read-out: solubility): 3 µg/mL (≈ 6.63 µM)
half-life [8]: 4 min
half-life [9]: 5 min
half-life [5]: 2 min
IC50 [6]: 61 nM
IC50 [10]: 16400 nM
EC50 [7]: 60 nM

Cc1c2c(n3c1CCCNC(=O)[C@H](C)Nc1cc-3ccc1C(N)=O)CC(C)(C)CC2=O
inhibition at 3 µM [1]: 23%
inhibition at 3 µM [2]: 5%
inhibition at 3 µM [3]: 6%
solubility ([4]; read-out: solubility): > 100 µg/mL
half-life [8]: 4 min
half-life [9]: > 30 min
half-life [5]: > 30 min
IC50 [6]: 82 nM
EC50 [7]: 56 nM
